As a reminder, the viability, T/C is the result in the treated group divided by that in the control group, in per cent. In general, IC50 refers to the concentration needed to halve the response being measured.

Experimental findings from PubChem BioAssay AID1963845 (Molecular Pharmacology Branch, DTP, NCI, 2024) are described below.

Where “and” joins values, the source holds several entries; their conditions need not be identical. Equal values may be shown once.

This assay relates to 429239-143-T-J1-PDC complex spheroid viability. In words: Anticancer human tumor 429239-143-T-J1-PDC patient-derived small cell lung carcinoma cell line growth inhibition [POLQ]. The note with it: for viability, T/C: stronger effect = lower value. On the procedure:
Multicellular complex tumor spheroid response to Polymerase (POL) inhibitors (novobiocin, ART-558, RP6685) in combination with a variety of drugs and investigational agents in selected tumor cell lines
The POL inhibitors (novobiocin, ART-558, and RP6685) were evaluated both individually and in combination with standard of care and investigational anticancer small molecules within a complex spheroid model of solid tumors. . Complex spheroids include a stromal component modeled by human endothelial cells (HUVEC) and fibroblasts modeled by human mesenchymal stem cells (MSCs). The concentration ranges selected for each drug and investigational agent were based upon clinically achievable concentrations if the clinical Cmax of the agent was known.
Compounds. The drugs and investigational agents: novobiocin (NSC847541), ART-558 (NSC835418), RP-6685 (NSC848927), peposertib (NSC802822), ceralasertib (NSC780249), elimusertib (NSC800525), camonsertib (NSC841442), AZD-1390 (NSC803789), olaparib (NSC753686), talazoparib (NSC767125), rucaparib (NSC756644), sotorasib (NSC818433), MRTX-1133 (NSC836407), SN-38 (NSC673596), topotecan (NSC609699), epotoside (NSC141540), doxorubicin (NSC123127), gemcitabine (NSC613327), 5-fluorouracil (NSC19893), paclitaxel (NSC125973), vemurafenib (NSC761431), MSA-2 (NSC828583), SN-011 (NSC837082), adavosertib (NSC754352), prexasertib (NSC758257), carboplatin (NSC241240) and oxaliplatin (NSC266046), were obtained from the National Cancer Institute (NCI) Developmental Therapeutics Program Chemical Repository (21). The FDA-approved anticancer drug set is available from the Developmental Therapeutics Program at https://dtp.cancer.gov/organization/dscb/obtaining/. […] The stock solutions were prepared in dimethyl sulfoxide (DMSO, Sigma-Aldrich, St. Louis, MO, cat. D2650), except for the platinum compounds which were prepared in saline (Quality Biological, Gaithersburg, MD, cat. 114-055-101), at 800-fold the tested concentration and stored at -70 degrees C prior to their use. All drugs and investigational agents were tested over a range starting from a high concentration at or near the clinical Cmax and decreasing in half-log increments. If the clinical Cmax for an agent had not been determined, the highest concentration tested was 10 microM, except for SN-38, which was tested at a high concentration of 1 microM.
Cell Culture. All cells were maintained in an incubator at 37 degrees C and 5% CO2 with 95% humidity. The PDC lines were cultured according to standard operating procedures established by the NCI PDMR (https://pdmr.cancer.gov). Table 3 of the manuscript, lists the cell lines along with the number of the three cell types plated to form the mct-spheroids and media for tumor cell growth. After thawing, all PDC lines, except 997537-175-T-J1-PDC and 415267-285-R-J2-PDC, were cultured in Matrigel-coated flasks prepared with a working solution of 1X Ham's F-12 nutrient mix, without supplementation (Thermo Fisher Scientific, cat. 11765054), 100 U/mL penicillin-streptomycin (Thermo Fisher Scientific, cat. 15140122), and 2.5% Matrigel (Corning Inc., Corning, NY, cat. 354248) for the first three passages. The two PDC lines 997537-175-T-J1-PDC and 415267-285-R-J2-PDC were cultured on uncoated flasks. The 857933-349-R-J2-PDC line was cultured in 6C/Colon 1B media containing advanced DMEM/F-12 (Thermo Fisher Scientific, cat. 12634028), 10 mM HEPES (Thermo Fisher Scientific, cat. 15630080), 1X GlutaMAX supplement (Thermo Fisher Scientific, cat. 35050061), 0.1 mg/mL primocin (InvivoGen, San Diego, CA, cat. ant-pm-2), 10% defined fetal bovine serum, heat inactivated (HyClone Laboratories Inc., Logan, UT, cat. SH30070.03HI), 50% L-WRN conditioned media (ATCC, cat. CRL-3276), 1.25 mM N-Acetyl-L-cysteine (Sigma-Aldrich, cat. A9165), 10 mM nicotinamide (Sigma-Aldrich, cat. N0636), 1X B-27 supplement (Thermo Fisher Scientific, cat. 17504044), 1X N-2 supplement (Thermo Fisher Scientific, cat. […]
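Further: luminescence signal used as surrogate measure of viable cells; spheroids exposed to compounds for seven days before readout.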
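Wherever viability, T/C is given: 100% = DMSO vehicle control viability as luminescence relative to vehicle.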

For the molecule `C=CCn1c(=O)c2cnc(Nc3ccc(N4CCN(C)CC4)cc3)nc2n1-c1cccc(C(C)(C)O)n1`, the viability, T/C (compound 0.00316 µM) was 99.5% and 101% and 95.1%; the viability, T/C (compound 0.01 µM) was 103% and 107% and 104%; the viability, T/C (compound 0.0316 µM) was 89.4% and 120% and 103%; the viability, T/C (compound 0.1 µM) is 82.4% and 97.7% and 98.2%; the viability, T/C (compound 0.316 µM) is 91.7% and 94% and 88.9%; the viability, T/C (compound 1 µM) was 17.4% and 20% and 18.9%. Moreover, the half-maximal inhibitory concentration (IC50) (curve of compound) is 603 nM and 621 nM and 600 nM.

With `CC(=O)O[C@H]1C(=O)[C@@]2(C)[C@H]([C@H](OC(=O)c3ccccc3)[C@]3(O)C[C@H](OC(=O)[C@H](O)[C@@H](NC(=O)c4ccccc4)c4ccccc4)C(C)=C1C3(C)C)[C@]1(OC(C)=O)CO[C@@H]1C[C@@H]2O`, the viability, T/C was 62.4% and 68.4% and 14% (compound 0.00949 µM); 18.6% and 19.8% and 13.2% (compound 0.03 µM); 14.8% and 17.6% and 11.4% (compound 0.0949 µM); 19.5% and 16.1% and 12.9% (compound 0.3 µM); 19.7% and 25.1% and 11.1% (compound 0.949 µM); 29.5% and 28.1% and 14% (compound 3 µM). Further, the IC50 (curve of compound) is 13.4 nM and 14.9 nM and < 9.49 nM.

As for `CC(C)n1c(=O)n(C)c2cnc3cc(F)c(-c4ccc(OCCCN5CCCCC5)nc4)cc3c21`, the viability, T/C is 99.4% and 102% and 100% (compound 0.0316 µM); 94.7% and 101% (2×) (compound 0.1 µM); 102% and 94.4% and 86.6% (compound 0.316 µM); 89.1% and 102% and 95.7% (compound 1 µM); 91.2% and 99.8% and 90.1% (compound 3.16 µM); 60.3% and 99.5% and 74.6% (compound 10 µM). Also, the IC50 (curve of compound) was over 10000 nM.

`CC1COCCN1c1cc(-c2ccnn2C)c2ccnc(-c3ccn[nH]3)c2n1` (stereo not drawn): the viability, T/C is 81.5% and 81.3% and 92.4% (compound 0.0316 µM); 50% and 45.1% and 76.5% (compound 0.1 µM); 27.3% and 28.6% and 65.2% (compound 0.316 µM); 13.1% and 16% and 35.1% (compound 1 µM); 10.7% and 9.53% and 5.15% (compound 3.16 µM); 10.5% and 9.86% and 3.76% (compound 10 µM). Further, for the setting “curve of compound”, the IC50 is 102 nM and 88.6 nM and 527 nM.

As to `CC1COCCN1c1cc(C2(S(C)(=N)=O)CC2)nc(-c2ccnc3[nH]ccc23)n1` (stereo not drawn), the viability, T/C is 106% and 91.7% and 104% (compound 0.0316 µM); 99.9% and 108% and 91.8% (compound 0.1 µM); 94.5% and 93.5% and 97.2% (compound 0.316 µM); 70.8% and 83.8% and 71.7% (compound 1 µM); 41.6% and 77.8% and 42.5% (compound 3.16 µM); 16.7% and 45.8% and 16.9% (compound 10 µM). Further, under “curve of compound”, the half-inhibitory concentration (IC50) is 2270 nM and 8700 nM and 2350 nM.

In the case of `CCCS(=O)(=O)Nc1ccc(F)c(C(=O)c2c[nH]c3ncc(-c4ccc(Cl)cc4)cc23)c1F`, the viability, T/C runs as follows: (compound 0.0316 µM) 94.3% and 101% and 99.8%; (compound 0.1 µM) 96.1% and 110% and 85.9%; (compound 0.316 µM) 100% and 104% and 94.3%; (compound 1 µM) 92.9% and 106% and 89.7%; (compound 3.16 µM) 97.2% and 113% and 91%; (compound 10 µM) 79.2% and 84.4% and 48.5%. Besides, the IC50 (curve of compound) was > 10000 nM and 9610 nM.

For `CC[C@@]1(O)C(=O)OCc2c1cc1n(c2=O)Cc2cc3c(CN(C)C)c(O)ccc3nc2-1`, the viability, T/C was 98.5% and 98.7% and 92.7% (compound 0.000316 µM); 96.4% and 98.7% and 99.2% (compound 0.001 µM); 99.3% and 95.3% and 99.2% (compound 0.00316 µM); 64% and 86.4% and 63.1% (compound 0.01 µM); 18% and 9.22% and 16.4% (compound 0.0316 µM); 16% and 6.06% and 17.5% (compound 0.1 µM). Moreover, the IC50 (curve of compound) was 14.1 nM and 17.2 nM and 13.9 nM.

Consider `CCc1c2c(nc3ccc(O)cc13)-c1cc3c(c(=O)n1C2)COC(=O)[C@]3(O)CC`, for which the viability, T/C is, setting by setting: (compound 0.00316 µM) 14.7% and 8.09% and 15.9%; (compound 0.01 µM) 15.4% and 8.23% and 16.2%; (compound 0.0316 µM) 15.1% and 8.92% and 18.4%; (compound 0.1 µM) 18% and 6.71% and 16.7%; (compound 0.316 µM) 14.7% and 5.07% and 16%; (compound 1 µM) 4.2% and 2.5% and 5.57%. Also, the half-maximal inhibitory concentration (IC50) (curve of compound) is under 3.16 nM.

For the molecule `CNCc1ccc(-c2[nH]c3cc(F)cc4c3c2CCNC4=O)cc1`, the viability, T/C runs as follows: (compound 0.0316 µM) 87.2% and 101% and 90.9%; (compound 0.1 µM) 82.5% and 98.5% and 90.4%; (compound 0.316 µM) 76.4% and 92.6% and 91.3%; (compound 1 µM) 75.4% and 90% and 68.9%; (compound 3.16 µM) 49.1% and 76.2% and 44.9%; (compound 10 µM) 25% and 30% and 21.1%. Moreover, the IC50 (curve of compound) is 3170 nM and 6000 nM and 2430 nM.

Consider `COC1C(OC(N)=O)C(O)C(Oc2ccc3c(O)c(NC(=O)c4ccc(O)c(CC=C(C)C)c4)c(=O)oc3c2C)OC1(C)C` (stereo not drawn), for which the viability, T/C is, setting by setting: (compound 0.0316 µM) 99.8% [middle of 13 runs]; (compound 0.1 µM) 101% [middle of 13 runs]; (compound 0.316 µM) 100% [middle of 13 runs]; (compound 3.16 µM) 99.4% [middle of 13 runs]. In addition, the IC50 (compound alone, run of 01/08/2024) is over 10000 nM.
